Measured values published in patent publication US20080269214A1, “Pyrrole Derivatives as Dna Gyrase and Topoisomerase Inhibitors” (ASTRAZENECA AB, priority 2005, published 2008).
Values after ≈ are worked out from the molar mass of the structure shown. Each block holds one compound with its values, some of them ahead of it.

Legend:
Experiment in all cases: Bacterial susceptibility testing in liquid media (MIC)
SAU516 = type: cell-based; details: strain SAU516; no unit printed in table (b320 text uses μg/ml); growth reduced by 80% or more, 24 hrs
Protocol: (§1) Compounds were tested for antimicrobial activity by susceptibility testing in liquid media. Compounds were dissolved in dimethylsulfoxide and tested in 10 doubling dilutions in the susceptibility assays. The organisms used in the assay were grown overnight on suitable agar media and then suspended in a liquid medium appropriate for the growth of the organism. The suspension was a 0.5 McFarland and a further 1 in 10 dilution was made into the same liquid medium to prepare the final organism suspension in 100 µL. Plates were incubated under appropriate conditions at 37 degrees C. for 24 hrs prior to reading. The Minimum Inhibitory Concentration was determined as the lowest drug concentration able to reduce growth by 80% or more.

HIN446 = type: cell-based; details: strain HIN446; no unit printed in table (b320 text uses μg/ml); growth reduced by 80% or more, 24 hrs
Protocol: as §1

SPN548 = type: cell-based, Streptococcus pneumoniae; details: strain SPN548; no unit printed in table (b320 text uses μg/ml); growth reduced by 80% or more, 24 hrs
Protocol: as §1

Streptococcus pneumoniae = type: cell-based; details: lowest concentration reducing growth by 80% or more, 37 degrees C., 24 hrs, read-out: MIC against Streptococcus pneumoniae
Protocol: as §1

Compound: Cc1[nH]c(C(=O)Nc2ccc(-c3ccc(C(=O)O)o3)cc2)c(Cl)c1Cl [Example 36, 5-(4-{[(3,4-Dichloro-5-methyl-1H-pyrrol-2-yl)carbonyl]amino}phenyl)-2-furoic acid]
- MIC SAU516 (SAU516): 2
- MIC HIN446 (HIN446): 1
- MIC SPN548 (SPN548): 0.25

Compound: Cc1[nH]c(C(=O)Nc2ccc(-c3cnc(Cl)c(C(=O)O)c3)cc2)c(Cl)c1Cl [Example 26, 2-Chloro-5-(4-{[(3,4-dichloro-5-methyl-1H-pyrrol-2-yl)carbonyl]amino}phenyl)nicotinic acid]
- MIC SAU516 (SAU516): 32
- MIC HIN446 (HIN446): 8
- MIC SPN548 (SPN548): 1

Compound: CNc1ncc(-c2ccc(NC(=O)c3[nH]c(C)c(Cl)c3Cl)cc2)cc1C(=O)O [Example 25, 5-(4-{[(3,4-Dichloro-5-methyl-1H-pyrrol-2-yl)carbonyl]amino}phenyl)-2-(methylamino)nicotinic acid]
- MIC SAU516 (SAU516): 2
- MIC HIN446 (HIN446): 4
- MIC SPN548 (SPN548): 1

Compound: Cc1[nH]c(C(=O)Nc2ccc(-c3cncc(C(=O)O)c3)cc2)c(Cl)c1Cl [Example 23, 5-[4-[[(3,4-Dichloro-5-methyl-1H-pyrrol-2-yl)carbonyl]amino]phenyl]-3-pyridinecarboxylic acid]
- MIC SAU516 (SAU516): 4
- MIC HIN446 (HIN446): 2
- MIC SPN548 (SPN548): 0.13

Compound: Cc1[nH]c(C(=O)Nc2ccc(-c3cc(C(=O)O)ccn3)cc2)c(Cl)c1Cl [Example 27, 2-(4-{[(3,4-Dichloro-5-methyl-1H-pyrrol-2-yl)carbonyl]amino}phenyl)isonicotinic acid]
- MIC SAU516 (SAU516): 2
- MIC HIN446 (HIN446): 2
- MIC SPN548 (SPN548): 0.13

- MIC (Streptococcus pneumoniae): 1 µg/mL (≈ 2.38 µM)
Compound: COc1ncc(-c2ccc(NC(=O)c3[nH]c(C)c(Cl)c3Cl)cc2)cc1C(=O)O [Example 30, 5-(4-{[(3,4-Dichloro-5-methyl-1H-pyrrol-2-yl)carbonyl]amino}phenyl)-2-methoxynicotinic acid]
